Measured values published in patent US20160346249A1 (priority 2012, published 2016).
Values joined by “and” are separate entries in the source; they are usually repeats but may differ in a detail not shown here. Equal entries are not always repeated.

Experiment: Single rising oral dose (10-150 mg IR) safety, tolerance and pharmacokinetics in healthy male volunteers
Type: in vivo, human
Text: Fifty (50) healthy male adult volunteers, between the ages of 19 and 43 years (mean±SD: 28±6 years) were enrolled in the study and randomized to the […] different treatments. […] The subjects were divided into panels of 10 subjects/dose group. Seven subjects in each group received the test drug, while three received an identical-looking placebo. […] The five treatments are outlined below:
The subjects were admitted to the clinic the night before dose administration and fasted from approximately 10 hour before to 4 hour after ingestion of the study capsules. Treatments were administered with 240 mL of mineral water between 08:00 and 09:00 hours. […] The assay calibration range was 5 to 2,000 ng/mL.
The values of Cmax and Tmax were the observed value for each subject. The terminal elimination rate constant λz was derived from the log-linear disposition phase of the concentration-time curve using linear least-squares regression for which the program determined the appropriate number of terminal points to calculate λz. At least three terminal plasma concentrations were used for estimating λz. The t1/2 (HL_Lambda_z) was calculated as ln 2/λz. AUC0-t and AUMC0-t were determined using the linear trapezoidal rule for each increasing concentration and the log-trapezoidal rule for descending concentrations. The AUC values from the last quantifiable time point to infinity was calculated as Ct/λz. This value was added to AUC0-t to obtain AUC0-∞. […] Oral clearance was calculated as Dose/AUC0-∞. The 90% confidence intervals were calculated for all of the variables.
SAS, version 8.2, was used for the analysis.

[1] = 10 mg, individual subject, listed as DOV 21,947
[2] = 25 mg, individual subject, listed as DOV 21,947
[3] = 50 mg, individual subject, listed as DOV 21,947
[4] = 100 mg, individual subject, listed as DOV 21,947
[5] = 150 mg, individual subject, listed as DOV 21,947

For `Clc1ccc([C@]23CNC[C@H]2C3)cc1Cl` [amitifadine, (+)-1-(3,4-dichlorophenyl)-3-azabicyclo[3.1.0]hexane], the λ2 (10 mg, Geometric Mean) was 0.204 h⁻¹, the “AUC0-∞” value (10 mg, Maximum) was 551 ng·h/mL and the AUC(0-t) (10 mg, Maximum) was 492 ng·h/mL. The “MRT0-∞” value (10 mg, Maximum) was 6.09 h, the t1/2 (10 mg, Maximum) was 3.90 h and the λ2 (10 mg, Maximum) was 0.233 h⁻¹. The λz (10 mg, Mean (n = 7)) was 0.205 h⁻¹, the λ2 (10 mg, Median) was 0.200 h⁻¹ and the “AUC0-∞” value (10 mg, Minimum) was 257 ng·h/mL. For the same compound, the AUC(0-t) (10 mg, Minimum) was 227 ng·h/mL, the “MRT0-∞” value (10 mg, Minimum) was 4.72 h and the t1/2 (10 mg, Minimum) was 2.98 h. For the same compound, the λ2 (10 mg, Minimum) was 0.178 h⁻¹, the “MRT0-∞” value [1] was 5.47 h and 4.72 h and 6.09 h and 4.84 h and the t1/2 [1] was 3.63 h and 3.90 h and 3.09 h and 2.98 h and 3.79 h and 3.08 h. For the same compound, the λ2 [1] was 0.200 hr^−1 and 0.191 hr^−1 and 0.178 hr^−1 and 0.225 hr^−1 (2×) and 0.233 hr^−1 and 0.183 hr^−1, the λ2 (25 mg, Geometric Mean) was 0.234 h⁻¹ and the “AUC0-∞” value (25 mg, Maximum) was 2350 ng·h/mL. For the same compound, the AUC(0-t) (25 mg, Maximum) was 2220 ng·h/mL, the “MRT0-∞” value (25 mg, Maximum) was 6.46 h and the t1/2 (25 mg, Maximum) was 5.25 h. For the same compound, the λ2 (25 mg, Maximum) was 0.493 h⁻¹, the λz (25 mg, Mean (n = 7)) was 0.251 h⁻¹ and the AUC(0-t) (25 mg, Mean (n = 7), listed as DOV 21,947) was 1380 ng·h/mL. For the same compound, the λ2 (25 mg, Median) was 0.231 h⁻¹, the “AUC0-∞” value (25 mg, Minimum) was 1080 ng·h/mL and the AUC(0-t) (25 mg, Minimum) was 995 ng·h/mL. For the same compound, the “MRT0-∞” value (25 mg, Minimum) was 4.26 h, the t1/2 (25 mg, Minimum) was 1.41 h and the λ2 (25 mg, Minimum) was 0.132 h⁻¹. For the same compound, the “MRT0-∞” value [2] was 4.26 h and 6.46 h and 4.98 h and 4.29 h and 4.39 h, the λ2 [2] was 0.222 hr^−1 and 0.231 hr^−1 (2×) and 0.132 hr^−1 and 0.191 hr^−1 and 0.258 hr^−1 and 0.493 hr^−1 and the λ2 (50 mg, Geometric Mean) was 0.190 h⁻¹. The “AUC0-∞” value (50 mg, Maximum) was 3270 ng·h/mL, the AUC(0-t) (50 mg, Maximum) was 3220 ng·h/mL and the “MRT0-∞” value (50 mg, Maximum) was 5.66 h. For the same compound, the t1/2 (50 mg, Maximum) was 4.39 h, the λ2 (50 mg, Maximum) was 0.245 h⁻¹ and the λz (50 mg, Mean (n = 7)) was 0.192 h⁻¹. For the same compound, the λ2 (50 mg, Median) was 0.191 h⁻¹, the “AUC0-∞” value (50 mg, Minimum) was 1690 ng·h/mL and the AUC(0-t) (50 mg, Minimum) was 1530 ng·h/mL. The “MRT0-∞” value (50 mg, Minimum) was 4.38 h, the t1/2 (50 mg, Minimum) was 2.62 h and the λ2 (50 mg, Minimum) was 0.158 h⁻¹. The “MRT0-∞” value [3] was 4.38 h and 5.43 h and 5.22 h and 5.60 h and 5.66 h, the λ2 [3] was 0.213 h⁻¹ and 0.245 h⁻¹ and 0.199 h⁻¹ and 0.158 h⁻¹ and 0.191 h⁻¹ and 0.167 h⁻¹ and 0.170 h⁻¹ and the λ2 (100 mg, Geometric Mean) was 0.167 h⁻¹. For the same compound, the “AUC0-∞” value (100 mg, Maximum) was 5960 ng·h/mL, the AUC(0-t) (100 mg, Maximum) was 5900 ng·h/mL and the “MRT0-∞” value (100 mg, Maximum) was 7.03 h. It also gave a t1/2 (100 mg, Maximum) of 4.35 h, a λ2 (100 mg, Maximum) of 0.177 h⁻¹ and a λz (100 mg, Mean (n = 7)) of 0.167 h⁻¹. The λ2 (100 mg, Median) was 0.164 h⁻¹, the “AUC0-∞” value (100 mg, Minimum) was 4030 ng·h/mL and the AUC(0-t) (100 mg, Minimum) was 3960 ng·h/mL. For the same compound, the “MRT0-∞” value (100 mg, Minimum) was 4.85 h, the t1/2 (100 mg, Minimum) was 3.92 h and the λ2 (100 mg, Minimum) was 0.159 h⁻¹. The “MRT0-∞” value [4] was 7.03 h and 5.71 h and 5.63 h and 4.85 h, the λ2 [4] was 0.176 hr^−1 and 0.162 hr^−1 and 0.173 hr^−1 and 0.159 hr^−1 (2×) and 0.164 hr^−1 and 0.177 hr^−1 and the λ2 (150 mg, Geometric Mean) was 0.191 h⁻¹. The “AUC0-∞” value (150 mg, Maximum) was 11100 ng·h/mL, the AUC(0-t) (150 mg, Maximum) was 10900 ng·h/mL and the “MRT0-∞” value (150 mg, Maximum) was 7.14 h. The t1/2 (150 mg, Maximum) was 4.87 h, the λ2 (150 mg, Maximum) was 0.288 h⁻¹ and the λz (150 mg, Mean (n = 7)) was 0.195 h⁻¹. The t1/2 (150 mg, Mean (n = 7), listed as DOV 21,947) was 3.91 h, the λ2 (150 mg, Median) was 0.189 h⁻¹ and the “AUC0-∞” value (150 mg, Minimum) was 6590 ng·h/mL. For the same compound, the AUC(0-t) (150 mg, Minimum) was 6390 ng·h/mL, the “MRT0-∞” value (150 mg, Minimum) was 4.66 h and the t1/2 (150 mg, Minimum) was 2.41 h. For the same compound, the λ2 (150 mg, Minimum) was 0.142 h⁻¹, the “MRT0-∞” value [5] was 7.03 h and 6.70 h and 4.66 h and 7.14 h and the λ2 [5] was 0.177 h⁻¹ and 0.142 h⁻¹ and 0.189 h⁻¹ and 0.288 h⁻¹ and 0.200 h⁻¹ and 0.159 h⁻¹ and 0.209 h⁻¹. For the same compound, the “variability of Cmax and AUC” value (all doses) was ≤ 30% and the MRT inf (human, plasma, oral, 10 mg, individual subject, read-out: MRT0-∞) was 5.36 h.
